Source: patent US10051863B2, “Methods for apple scab control” (Valent U.S.A., Corporation, priority 2015, dated 2018)

Tests used:
[1] = tested on: apple scab caused by Venturia inaequalis; assay: Example 2: apple tree trunk treatment, leaf and fruit pest incidence and severity; format: in vivo
Description: (§1) In this study, the 3-(difluoromethyl)-1-methyl-N-[(3R)-1,1,3-trimethyl-2,3-dihydroinden-4-yl]pyrazole-4-carboxamide treatment was applied at the time of bud swell in mid March on apple tree trunks (treatment 5). The result of this treatment was compared to metconazole treatments applied when the apple trees were dormant (treatments 2 and 3), at the time of bud swell (treatment 4), and a foliar spray applied after petal fall (treatment 6). The control treatment (treatment 1) was applied during bud swell, as well. Four trees were subjected to each treatment.

Alternaria leaf spot = assay: Example 1: bark spray on pear trees, Alternaria leaf spot control; format: in vivo; settings: bark spray at mid-petal fall, at this rate and time of development
Description: (§2) Applicant conducted the following study to determine the effect of a 3-(difluoromethyl)-1-methyl-N-[(3R)-1,1,3-trimethyl-2,3-dihydroinden-4-yl]pyrazole-4-carboxamide bark spray application on common fungal infections in apple and pear trees. Applications were made in late February with a CO2 charged, single-tip hand sprayer. Treatments were applied as a spray to the lower 3 to 4 feet of the tree trunks all the way around the tree. The tree trunks were sprayed until they were wet. If the treatments included a surfactant (see tables), then the treatments included a surfactant at a rate of 3 fl oz/gallon of the spray mix. The apple trees were at bed swell stage. The apple tree trunks were about 5 to 8 inches in diameter. The pear trees were at mid-petal fall with some green leaves emerging. The pear tree trunks were about 10 to 12 inches in diameter. The following rates in grams per active/cm diameter tree trunk are based on an average trunk diameter. A large amount of apple scab naturally developed during this growing season in this location. The effects of the treatments on apple leaf phytotoxicity, apple leaf apple scab incidence, apple leaf scab severity, and apple leaf percent control were observed 113 and 169 days after treatment (“DAT”). The results of this study are below in Tables 1 and 2.

apple trees [2] = assay: Example 2: phytotoxicity on apple trees; format: in vivo
Description: as §1

Fabraea leaf spot = assay: Example 1: bark spray on pear trees, Fabraea leaf spot control; format: in vivo; settings: bark spray at mid-petal fall, at this rate and time of development
Description: as §2

[3] = tested on: apple scab caused by Venturia inaequalis; assay: Example 1: bark spray on apple trees, apple leaf scab incidence, severity and % control; format: in vivo; parameters: Apple leaf scab severity: scale not given here; Apple Leaf scab incidence: unit not given here; settings: for Apple Leaf scab incidence / Apple leaf % control / Apple leaf scab severity: bark spray
Description: as §2

Water solubility = format: physicochemical
apple trees [4] = assay: Example 1: apple leaf phytotoxicity after bark spray; format: in vivo; parameters: scale not given here
Description: as §2

apple scab = settings: background statement, cited from earlier work
[5] = first fruit pest, treatment 5, applied at the time of bud swell in mid March on apple tree trunks, 0.003 grams active/cm trunk diameter + 2.3% V/V surfactant
[6] = treatment 5, applied at the time of bud swell in mid March on apple tree trunks, 0.003 grams active/cm trunk diameter + 2.3% V/V surfactant
[7] = 113 DAT, 0.003 grams active/cm trunk diameter + 2.3% V/V surfactant
[8] = 113 DAT, 0.03 grams active/cm trunk diameter + 2.3% V/V surfactant
[9] = 169 DAT, 0.003 grams active/cm trunk diameter + 2.3% V/V surfactant
[10] = 169 DAT, 0.03 grams active/cm trunk diameter + 2.3% V/V surfactant
[11] = first fruit pest, treatment 2, applied when apple trees dormant, 1.72 grams active/cm trunk diameter + 2.3% V/V surfactant
[12] = first fruit pest, treatment 3, applied when apple trees dormant, 1.72 grams active/cm trunk diameter + 2.3% V/V surfactant
[13] = first fruit pest, treatment 4, applied at the time of bud swell, 1.72 grams active/cm trunk diameter + 2.3% V/V surfactant
[14] = first fruit pest, treatment 6, foliar spray applied after petal fall, 4 oz pr/A, surfactant not given
[15] = treatment 2, applied when apple trees dormant, 1.72 grams active/cm trunk diameter + 2.3% V/V surfactant
[16] = treatment 3, applied when apple trees dormant, 1.72 grams active/cm trunk diameter + 2.3% V/V surfactant
[17] = treatment 4, applied at the time of bud swell, 1.72 grams active/cm trunk diameter + 2.3% V/V surfactant
[18] = treatment 6, foliar spray applied after petal fall, 4 oz pr/A, surfactant not given
[19] = 113 DAT, 0.86 grams active/cm trunk diameter + 2.3% V/V surfactant
[20] = 113 DAT, 1.72 grams active/cm trunk diameter + 2.3% V/V surfactant
[21] = 113 DAT, 3.44 grams active/cm trunk diameter + 2.3% V/V surfactant
[22] = 169 DAT, 0.86 grams active/cm trunk diameter + 2.3% V/V surfactant
[23] = 169 DAT, 1.7 grams active/cm trunk diameter + 2.3% V/V surfactant
[24] = 169 DAT, 3.4 grams active/cm trunk diameter + 2.3% V/V surfactant
[25] = 113 DAT, 1.16 grams active/cm trunk diameter + 2.3% V/V surfactant
[26] = 169 DAT, 1.16 grams active/cm trunk diameter + 2.3% V/V surfactant

C[C@@H]1CC(C)(C)c2cccc(NC(=O)c3cn(C)nc3C(F)F)c21 [3-(Difluoromethyl)-1-methyl-N-[(3R)-1,1,3-trimethyl-2,3-dihydroinden-4-yl]pyrazole-4-carboxamide]
Fruit pest incidence [1, 5]: 10.25 | Fruit pest severity [1, 5]: 0.638 | Fruit pest incidence [1, 6]: 0.33 | Fruit pest severity [1, 6]: 0.183 | Leaf pest incidence [1, 6]: 0.25 | Leaf pest severity [1, 6]: 0.3 | control of Alternaria leaf spot (Alternaria leaf spot): failed to provide adequate control | Phytotoxicity (apple trees [2]; [6]): 0 | control of Fabraea leaf spot (Fabraea leaf spot): failed to provide adequate control | Apple Leaf scab incidence [3, 7]: 20 | Apple leaf % control [3, 7]: 88.3% | Apple leaf scab severity [3, 7]: 13.8 | Apple Leaf scab incidence [3, 8]: 23 | Apple leaf % control [3, 8]: 80% | Apple leaf scab severity [3, 8]: 16.3 | Apple Leaf scab incidence [3, 9]: 13.75 | Apple leaf % control [3, 9]: 43.8% | Apple leaf scab severity [3, 9]: 7 | Apple Leaf scab incidence [3, 10]: 13.75 | Apple leaf % control [3, 10]: 46.3% | Apple leaf scab severity [3, 10]: 4.5 | activity against apple scab caused by Venturia inaequalis ([3]; combined with a surfactant and applied as a bark spray, as compared to metconazole and propiconazole): excellent activity | water solubility (Water solubility): low water solubility | Apple Leaf Phytotoxicity (apple trees [4]; [7]): 0 | Apple Leaf Phytotoxicity (apple trees [4]; [8]): 0 | Apple Leaf Phytotoxicity (apple trees [4]; [9]): 0 | Apple Leaf Phytotoxicity (apple trees [4]; [10]): 0

O=C1C2CC=CCC2C(=O)N1SC(Cl)(Cl)Cl (centres unmarked) [Captan, N-trichtoromethylthiocyclohexene-1,2-dicarboximide]
systemic control activity (apple scab): no systemic control activity | effectiveness against apple scab (apple scab; contact fungicide): effective against apple scab

CC1(C)CCC(Cc2ccc(Cl)cc2)C1(O)Cn1cncn1 (centres unmarked) [Metconazole + Surfactant, metconazole]
Fruit pest incidence [1, 11]: 33.75 | Fruit pest severity [1, 11]: 2.25 | Fruit pest incidence [1, 12]: 6.67 | Fruit pest severity [1, 12]: 0.333 | Fruit pest incidence [1, 13]: 14.00 | Fruit pest severity [1, 13]: 1.125 | Fruit pest incidence [1, 14]: 2.75 | Fruit pest severity [1, 14]: 0.263 | Fruit pest incidence [1, 15]: 45.0 | Fruit pest severity [1, 15]: 3.0 | Leaf pest incidence [1, 15]: 1.875 | Leaf pest severity [1, 15]: 5.0 | Fruit pest incidence [1, 16]: 10.0 | Fruit pest severity [1, 16]: 0.5 | Leaf pest incidence [1, 16]: 1.000 | Leaf pest severity [1, 16]: 1.7 | Fruit pest incidence [1, 17]: 18.67 | Fruit pest severity [1, 17]: 1.5 | Leaf pest incidence [1, 17]: 0.140 | Leaf pest severity [1, 17]: 2.0 | Fruit pest incidence [1, 18]: 3.67 | Fruit pest severity [1, 18]: 0.350 | Leaf pest incidence [1, 18]: 0.125 | Leaf pest severity [1, 18]: 0.8 | Phytotoxicity (apple trees [2]; [15]): 0 | Phytotoxicity (apple trees [2]; [16]): 0 | Phytotoxicity (apple trees [2]; [17]): 0 | Phytotoxicity (apple trees [2]; [18]): 0 | Apple Leaf scab incidence [3, 19]: 12.5 | Apple leaf % control [3, 19]: 80% | Apple leaf scab severity [3, 19]: 10 | Apple Leaf scab incidence [3, 20]: 18 | Apple leaf % control [3, 20]: 68.8% | Apple leaf scab severity [3, 20]: 18.3 | Apple Leaf scab incidence [3, 21]: 11.25 | Apple leaf % control [3, 21]: 80% | Apple leaf scab severity [3, 21]: 13.3 | Apple Leaf scab incidence [3, 22]: 18.88 | Apple leaf % control [3, 22]: 31.3% | Apple leaf scab severity [3, 22]: 4.25 | Apple Leaf scab incidence [3, 23]: 15.5 | Apple leaf % control [3, 23]: 27.5% | Apple leaf scab severity [3, 23]: 4.75 | Apple Leaf scab incidence [3, 24]: 7.25 | Apple leaf % control [3, 24]: 62.5% | Apple leaf scab severity [3, 24]: 2.75 | Apple Leaf Phytotoxicity (apple trees [4]; [19]): 0 | Apple Leaf Phytotoxicity (apple trees [4]; [20]): 0 | Apple Leaf Phytotoxicity (apple trees [4]; [21]): 0 | Apple Leaf Phytotoxicity (apple trees [4]; [22]): 0 | Apple Leaf Phytotoxicity (apple trees [4]; [23]): 0 | Apple Leaf Phytotoxicity (apple trees [4]; [24]): 0

CCCC1COC(Cn2cncn2)(c2ccc(Cl)cc2Cl)O1 (centres unmarked) [Propiconazole + Surfactant, propiconazole]
Apple Leaf scab incidence [3, 25]: 18.78 | Apple leaf % control [3, 25]: 68.3% | Apple leaf scab severity [3, 25]: 8.3 | Apple Leaf scab incidence [3, 26]: 13.38 | Apple leaf % control [3, 26]: 36.3% | Apple leaf scab severity [3, 26]: 4.63 | Apple Leaf Phytotoxicity (apple trees [4]; [25]): 0 | Apple Leaf Phytotoxicity (apple trees [4]; [26]): 0
